Experimental data reported in patent publication US10123533B2, “Nitrogen containing surfactants for agricultural use” (AKZO NOBEL CHEMICALS INTERNATIONAL B.V., priority 2009, dated 2018).

Tests used:
[1] = tested on: morning glory (IPOHE, a broad leaf week); experiment: Green house % Control of glyphosate samples with various surfactants (Example 1), morning glory; assay type: in vivo; conditions: MG
From the text: (§1) Four glyphosate samples with various surfactants were sprayed on morning glory (IPOHE, a broad leaf week) and wheat (TRIAV, a narrow leaf grass) in a green house setting. The surfactants are designated in Table 1.
(§2) The glyphosate rates of the spray solutions were 186, 372, and 743 g ae/ha (gram acid equivalent per hectare). […] Higher ratio means lower surfactant concentration. A ratio of 6.7 means the sample, at the same glyphosate concentration, has 2.2 times less surfactant than a sample with a ratio of 3.
(§3) Sample D served as a negative control, since it contained only glyphosate without added surfactant. Sample C served as a positive control since it is well known that tallowamine-15EO is an excellent surfactant to enhance glyphosate efficacy.
(§4) % Control ratings were conducted by an experienced person at 7, 14, 21, and 29 days after treatment (DAT). Digital pictures were also taken at the time of rating. Each % Control value was an average of 4 replicas.

[2] = tested on: wheat (TRIAV, a narrow leaf grass); experiment: Green house % Control of glyphosate samples with various surfactants (Example 1), wheat; assay type: in vivo; conditions: WT
From the text: as §1, §2, §3, §4

wheat = experiment: Example 5 trial of glyphosate formulations on wheat; assay type: in vivo; conditions: rate of 168 g ae/ha; glyphosate to surfactant ratio 3:1; 21DAT
From the text: FIG. 13 is a photo of wheat taken at 21 days after treatment with glyphosate alone, glyphosate with tallowamine-15EO, glyphosate with cocoamine-6EO betaine, and no glyphosate.
Cocoamine-6EO betaine was compared in the same trial with tallowamine-15EO as the positive control and the surfactant-free sample as negative control in glyphosate formulations. Glyphosate to surfactant ratio was 3:1.
This can be seen from the picture at FIG. 13, taken at 21DAT.

[3] = Solubility tests of prior art betaines in concentrated glyphosate salt solutions; assay type: physicochemical
From the text: WO2000038523 (Huntsman, U.S. Pat. No. 6,500,784, U.S. Pat. No. 6,653,257, EP1139761) discloses an amphoteric surfactant with the structure RCONH(CH2)nN^+R^12CH2COO^− where R^1 is alkyl or hydroxyl alkyl group with C1 to C4 and n=2-4, and discloses a betaine with the structure R R^12N^+CH2COO^− where R^1 is alkyl or hydroxyl alkyl group with C1 to C4. The amphoterics disclosed there mainly functioned as a co-surfactant to solubilize a ether carboxylate in to concentrated glyphosate systems. In the context of the document, there was no mention of bioefficacy of betaines or other amphoteric surfactants by themselves. […] However, without proper testing of individual surfactant, it is not possible to determine whether the effect seen in the mixture of three surfactants comes from the claimed surfactant or the other two surfactants. Moreover, no actual bioefficacy data and especially no data are provided on the degree of “overall kill” provided in the absence of surfactants and in the presence of surfactants; without such data it is not possible to determine whether or not the claimed alkyl amido betaine was effective in enhancing herbicidal activity of glyphosate under the conditions of the test reported. This patent requires Na ion to be <0.035% for the glyphosate formulation to be stable. Moreover, it used only IPA-glyphosate as examples. […]

[4] = tested on: morning glory (IPOHE) and wheat (TRIAV); experiment: Example 1 green house trial, overall statement on adjuvancy; assay type: in vivo; conditions: glyphosate:surfactant ratio 6.7
From the text: as §1, §2, §4

morning glory and wheat = experiment: Example 3 green house trial, % Control of glyphosate formulations; assay type: in vivo; conditions: 930, 465 and 233 g ae/ha; 28 DAT; compared with glyphosate formulation without surfactant
From the text: FIG. 9 is a bar graph illustrating the % control results of applying glyphosate formulation containing oleylamphopolycarboxy glycinate, glyphosate formulation containing tallowamine-10EO, and glyphosate alone, each at 233 g ae/ha, 465 g ae/ha, and 930 g ae/ha to morning glory at 28 days after treatment.
FIG. 10 is a bar graph illustrating the % control results of applying glyphosate formulation containing oleylamphopolycarboxy glycinate, glyphosate formulation containing tallowamine-10EO, and glyphosate alone, each at 233 g ae/ha, 465 g ae/ha, and 930 g ae/ha to wheat at 28 days after treatment.
Glyphosate formulation containing oleylamphopolycarboxy glycinate (Na salt) was compared in a green house trial with glyphosate formulation containing tallowamine-10EO (as positive control) and glyphosate alone in terms of % Control. Three glyphosate rates were used, 930 g ae/ha, 465 gae/ha, and 233 g ae/ha.
The results are plotted in FIGS. 9-10.

[5] = tested on: morning glory (IPOHE) and winter wheat (TRZAW); experiment: Example 2 green house trial of concentrated glyphosate samples, % control at 28 DAT; assay type: in vivo; conditions: glyphosate:surfactant 13:1, 489 and 978 g ae/ha, vs glyphosate alone
Procedure: The concentrated glyphosate samples were diluted to two glyphosate rates and sprayed in a green house so that the final glyphosate rates of the spray solutions were 489 and 978 g ae/H. Three samples at two rates equals six treatments that were sprayed on each of two species, morning glory (IPOHE, a broad leaf week) and winter wheat (TRZAW, a narrow leaf grass). Two rates were employed, 978 g ae/H, and 16-30 at 489 g ae/ha.
Higher ratio means lower surfactant concentration. A ratio of 13:1 means the sample, at the same glyphosate concentration, has 4.3 times less surfactant than a sample with a ratio of 3:1.
Sample A (glyphosate with added tallowamine-15EO) served as a positive control. Sample B containing only glyphosate without added surfactant served as a negative control.
FIGS. 7-8 illustrates the % control results at 28 DAT.

With `CC(C)N.O=C(O)CNCP(=O)(O)O` [Sample D, Glyphosate (isopropylamine salt)] the “% Control 7DAT” value ([1]; Glyph rate 186 g ae/h, average of 4 replicas) was 55%, the “% Control 14 DAT” value ([1]; Glyph rate 186 g ae/h) was 68% and the “% Control 21DAT” value ([1]; Glyph rate 186 g ae/h) was 79%. The “% Control 29DAT” value ([1]; Glyph rate 186 g ae/h) was 68%, the “% Control 7DAT” value ([1]; Glyph rate 372 g ae/h) was 86% and the “% Control 14 DAT” value ([1]; Glyph rate 372 g ae/h) was 89%. The “% Control 21DAT” value ([1]; Glyph rate 372 g ae/h) was 95%, the “% Control 29DAT” value ([1]; Glyph rate 372 g ae/h) was 93% and the “% Control 7DAT” value ([1]; Glyph rate 743 g ae/h) was 83%. For the same molecule, the “% Control 14 DAT” value ([1]; Glyph rate 743 g ae/h) was 90%, the “% Control 21DAT” value ([1]; Glyph rate 743 g ae/h) was 94% and the “% Control 29DAT” value ([1]; Glyph rate 743 g ae/h) was 91%. The “% Control 7DAT” value ([2]; Glyph rate 186 g ae/h) was 28%, the “% Control 14 DAT” value ([2]; Glyph rate 186 g ae/h) was 60% and the “% Control 21DAT” value ([2]; Glyph rate 186 g ae/h) was 80%. The “% Control 29DAT” value ([2]; Glyph rate 186 g ae/h) was 58%, the “% Control 7DAT” value ([2]; Glyph rate 372 g ae/h) was 58% and the “% Control 14 DAT” value ([2]; Glyph rate 372 g ae/h) was 85%. For the same molecule, the “% Control 21DAT” value ([2]; Glyph rate 372 g ae/h) was 89%, the “% Control 29DAT” value ([2]; Glyph rate 372 g ae/h) was 89% and the “% Control 7DAT” value ([2]; Glyph rate 743 g ae/h) was 84%. For the same molecule, the “% Control 14 DAT” value ([2]; Glyph rate 743 g ae/h) was 94%, the “% Control 21DAT” value ([2]; Glyph rate 743 g ae/h) was 98% and the “% Control 29DAT” value ([2]; Glyph rate 743 g ae/h) was 98%.
In the case of `O=C(O)CNCP(=O)(O)O` [glyphosate sample without surfactant, glyphosate], the control to wheat (wheat) is reported as “did not give much control”.
For `CCCCCCCCCCCCCCCCCC(=O)NCCC[N+](C)(C)CC(=O)[O-]` [stearyl dimethylamidopropyl betaine], the “amount of surfactant that could be dissolved” value ([3]; in a composition of 51.3% potassium glyphosate (aqueous)) was less than 1.8%.
With Cocodiamine trimethyl betaines the “speed of glyphosate activity” value [4] was “speeded up glyphosate activity” and the adjuvancy for glyphosate ([4]; 186, 372, 743 g ae/ha) was “good adjuvancy for glyphosate even at very low use rate”.
In the case of “Ethoxylated cocoamine (6EO) betaine [cocoamine-6EO betaine]”, the control to wheat (wheat) is reported as “excellent control”.
With coco dimethylamidopropyl betaine the “amount of surfactant that could be dissolved” value ([3]; in a composition of 360 g ae/l potassium glyphosate) was less than 80 g/L.
With “oleylamphopolycarboxy glycinate (Na salt)” the “enhancement of glyphosate efficacy” value (morning glory and wheat) was “enhanced glyphosate efficacy”.
With tallow diamine trimethyl di-betaine the “enhancement of glyphosate bioefficacy” value [5] was “enhanced glyphosate bioefficacy even at very low rate”.
In the case of tallowamine-15EO, the control to wheat (wheat) is reported as “excellent control”.
